Blank lines part the entries; values can stand above or below the compound they belong to.
What was measured:
Y2 receptors = system: Y2 receptors; design: method as in PMID 19953226; details: cited from earlier work
Y2 receptor = system: Y2 receptor; design: method as in PMID 24614224; details: living pigs; cited from earlier work
[1] = In vivo PET/MRI biodistribution of the radiotracer in mice; design: species or system C57BL/6N mice; details: i.v., 30–50 min post-injection, mean ± SEM, n = 7
Experimental: PET/MRI images of N-[^11C]Me-JNJ-31020028 and biodistribution studies were performed in healthy C57BL/6N mice. The radiotracer [^11C]2 injectable solutions were administered intravenously to the mice, previously anaesthetised, and the mice were put in the MicroPET scanner for PET imaging acquisition. The MRI acquisition was performed before injection due to the necessity of using equipment different from MicroPET.
PET/MRI Imaging. PET/MRI acquisitions were performed at the Institute for Nuclear Sciences Applied to Health (ICNAS) animal facility. During both acquisitions, the animals (n = 7) were anaesthetised using 1.5–2% isoflurane, and vital signs, such as temperature and respiratory cycle, were monitored. The radiotracer was administered intravenously (i.v.) in a total injected activity of 12.0 ± 2.9 µCi/g. Mice were placed in a MicroPET scanner based on resistive plate chamber detectors (RPC-PET). […] Quantitative imaging processing was performed using PMOD (PMOD, v 3.6; PMOD Technologies, Zürich, Switzerland, RRID: SCR_016547). […] Standardised uptake values (SUVs) were calculated as [[total positron (β+ radioactivity) concentration in the VOI (Bq/mL)]/[total positron (β+ radioactivity) injected (Bq)/weight (g)]] […] The percentage injected dose per gram (%ID/g) was calculated through Equation (2). […]

[2] = Ex vivo biodistribution by gamma counting one hour after i.v. injection; type: in vivo, C57BL/6N mice; details: mice, 1 h after i.v. injection
Experimental: The ex vivo biodistribution studies were performed one hour after the intravenous injection of the [^11C]2 injectable solution. For these studies, transcardiac perfusion with saline was performed, eliminating blood traces from the organs. […] Urinary excretion also occurred, though less radioactivity was found in the urine (84.43 ± 59.41%ID/g). The small intestine (98.64 ± 25.57%ID/g) and liver (14.33 ± 6.39%ID/g) were the organs with major uptake of the radiotracer. The high uptake in the small intestine is explained by the high density of Y2 receptors that exist in this organ, while the uptake in the liver is related to the metabolization of the tracer. Moderately low uptake was found in the stomach (3.082 ± 0.7135%ID/g), large intestine (2.18 ± 0.21%ID/g) and kidneys (1.99 ± 0.49%ID/g).
Biodistribution. In another cohort of animals (n = 5), ex vivo biodistribution (%ID/g of tissue) was performed by gamma counting through CRC®-55t well counter and CRC®-55tW radioisotope dose calibrator (Capintec, Ramsey, NJ, USA). Six regions of the brain were also isolated to characterise brain accumulation; the isolation of the specific brain regions was conducted following established protocols.

[3] = mean ± SEM, n = 5, listed as [^11C]2

SMILES: CCN(CC)C(=O)C(c1ccccc1)N1CCN(c2ccc(NC(=O)c3ccccc3-c3cccnc3)cc2F)CC1 (stereo not shown) [JNJ-31020028, N-(4-{4-[2-(diethylamino)-2-oxo-1-phenylethyl]piperazin1-yl}-3-fluorophenyl)-2-pyridin-3-ylbenzamide]
Affinity and selectivity towards the Y2 receptors (Y2 receptors): high affinity and selectivity

Uptake in the brain (in vivo PET) [1]: 0.5187 ± 0.08 %ID/g
Uptake in the gut (in vivo PET) [1]: 12.57 ± 1.27 %ID/g
Ex vivo biodistribution, small intestine ([2]; intestine wall, mean ± SEM, n = 5): 98.64 ± 25.57 %ID/g
Brain ex vivo biodistribution, amygdala ([2]; mean ± SEM, n = 5): 0.9318 ± 0.08 %ID/g
Brain ex vivo biodistribution, cerebellum ([2]; mean ± SEM, n = 5): 0.646 ± 0.10 %ID/g
Brain ex vivo biodistribution, hippocampus ([2]; mean ± SEM, n = 5): 0.8976 ± 0.09 %ID/g
Brain ex vivo biodistribution, hypothalamus ([2]; mean ± SEM, n = 5): 1.03 ± 0.11 %ID/g
Brain ex vivo biodistribution, pre-frontal cortex (PFC) ([2]; mean ± SEM, n = 5): 0.636 ± 0.06 %ID/g
Brain ex vivo biodistribution, striatum ([2]; mean ± SEM, n = 5): 1.013 ± 0.11 %ID/g
Ex vivo biodistribution, blood ([2]; mean ± SEM, n = 5): 3.661 %ID/g
Ex vivo biodistribution, kidney ([2]; mean ± SEM, n = 5): 1.986 %ID/g
Ex vivo biodistribution, large intestine ([2]; mean ± SEM, n = 5): 2.18 ± 0.21 %ID/g
Ex vivo biodistribution, liver ([2]; mean ± SEM, n = 5): 14.33 ± 6.39 %ID/g
Ex vivo biodistribution, urine ([2]; mean ± SEM, n = 5): 84.43 ± 59.41 %ID/g
Ex vivo biodistribution, bile [2, 3]: 250.1 ± 23.97 %ID/g
Ex vivo biodistribution, blood [2, 3]: 3.66 ± 1.55 %ID/g
Ex vivo biodistribution, kidney [2, 3]: 1.99 ± 0.49 %ID/g
Ex vivo biodistribution, stomach [2, 3]: 3.082 ± 0.7135 %ID/g
Ex vivo biodistribution, faeces ([2]; n = 5): 3.149 %ID/g
Ex vivo biodistribution, heart ([2]; n = 5): 1.394 %ID/g
Ex vivo biodistribution, lung ([2]; n = 5): 0.5568 %ID/g
Ex vivo biodistribution, muscle ([2]; n = 5): 0.9318 %ID/g
Ex vivo biodistribution, spleen ([2]; n = 5): 1.504 %ID/g
Ex vivo biodistribution, whole brain ([2]; n = 5): 0.6362 %ID/g
SMILES: CCN(CC)C(=O)C(c1ccccc1)N1CCN(c2ccc(N([11CH3])C(=O)c3ccccc3-c3cccnc3)cc2F)CC1 (stereo not shown) [N-[^11C]Me-JNJ-31020028]
Blood–brain barrier permeation (Y2 receptor): permeated the blood–brain barrier
Metabolization in the bloodstream (Y2 receptor): slow metabolization in the bloodstream
Route of elimination ([2]; from uptake in bile): mainly eliminated through the hepatobiliary system

Source: paper PMC11053772, “Improved Chemical and Radiochemical Synthesis of Neuropeptide Y Y2 Receptor Antagonist N-Methyl-JNJ-31020028 and Preclinical Positron Emission Tomography Studies” (Pharmaceuticals, 2024)
